Measured values taken from patent US20250387324A1, “IN SITU FORMING IMPLANTS AND MICROPARTICLES FOR INTRAARTICULAR DRUG DELIVERY” (Mississippi State University, priority 2024, published 2025).

Tests used:
[1] = Solvent screening for dissolving PCG; format: physicochemical
Protocol: The present inventor has developed a suitable in situ forming implant for sustained delivery of PCG. Polycarbonate, poly(lactic acid), and poly(lactide-co-glycolide) (PLGA) were dissolved in various solvents and screened for combinations that could also dissolve punicalagin and release it gradually from an implant formed in situ. PLGA emerged as the polymer that offered the best opportunity for the tuning of PCG release kinetics. Systems composed of PLGA and PCG dissolved in N-methyl-2-pyrrolidone (NMP) and/or benzyl alcohol (BA) consistently formed solid or hydrogel implants. […] Thus, one aspect of this invention is the characterization of PLGA in situ forming implants (originating from solutions containing NMP, BA, and BB) with respect to PCG stability and release kinetics.

[2] = test system: RAW264.7 murine macrophages; settings: cited from earlier work
[3] = test system: monoiodoacetate-induced model of OA; settings: cited from earlier work
[4] = test system: murine monocyte/macrophage-like cells; settings: dose-dependent; cited from earlier work
[5] = test system: IL-1β production by human THP-1 macrophages; experiment: LPS-stimulated IL-1β production by THP-1 macrophages (ELISA); format: cell-based
Source text: (§1) In addition to the inhibition of released collagenases, PCG is capable of suppressing the biosynthesis of inflammatory mediators that play important roles in the pathogenesis of OA. Such chondroprotective properties were investigated using THP-1 monocytes that had been differentiated into macrophages. THP-1 is a human leukemia monocytic cell line. THP-1 monocytes were expanded by suspension culture in RPMI 1640 medium supplemented with 10% FBS and 1% antibiotic-antimycotic solution. They were differentiated into macrophages by adding PMA to a final concentration of 20 nM and transferring them to monolayer culture for 72 h.^13 Inflammation was then induced by treatment with 1 μg/ml LPS. PCG was first dissolved at 5 mM in complete culture medium. One hour after LPS stimulation, cells were treated with PCG at final concentrations of 4, 20, 100, and 500 μM. Culture supernatant was collected 24 h later and IL-1β quantified using ELISA, with results expressed as a percentage of the unstimulated control.

fibroblast synoviocytes = settings: cited from earlier work
[6] = test system: adjuvant-induced arthritis; settings: daily intraperitoneal doses, 50 mg/kg; cited from earlier work
collagen type II = collagen type II (Homo sapiens, UniProt P02458); settings: non-covalent; cited from earlier work
type 2 collagenase = experiment: Inhibition of collagenase-mediated cartilage degradation (pig cartilage disks, residual mass); format: biochemical
Protocol: The stability of PCG within a PLGA implant was examined by determining the ability of released PCG to inhibit collagenase-mediated cartilage degradation. Pig stifle (knee) joints were obtained from a local meat processor and full-thickness, cylindrical disks of articular cartilage (5 mm diameter) were harvested from the distal femurs. The disks were freeze-dried, weighed, and placed in Dulbecco's Modified Eagle Medium (DMEM) containing 0.0025% type 2 collagenase with and without 100 μM PCG (n=12 disks per group). Samples were incubated at 37° C. under gentle orbital shaking. At 3, 6, 9, and 12 days of incubation, three disks from each group were rinsed in distilled water, freeze-dried and weighed again, while the rest were allowed to continue incubation after adding fresh collagenase. The same experiment was repeated using implants made with 20% PLGA (50:50), NMP/BB 90/10, and 0 or 32 mg PCG per gram total implant weight (n=12 per group). Implants were formed in microcentrifuge tubes by pipetting 100 μl of the solution into distilled water. One hour later the water was replaced by the collagenase solution. Custom 3D-printed baskets were used to suspend the cartilage disks in the collagenase just above the implants. Disks were collected and weighed at the same 3-day intervals, with replacement of the collagenase solution each time. PCG concentration in the spent collagenase solution was determined by measuring absorbance at 373 nm and comparing to a standard curve generated from serial dilutions of PCG dissolved directly into DMEM. For both experiments, data are reported as residual mass of cartilage (final weight/initial weight). The overall effect of PCG was analyzed by two-way ANOVA with treatment and time as factors. Statistically significant effects of PCG at each time point were determined by independent t-test (equal variances not assumed).

collagenase = settings: in vitro; cited from earlier work
[7] = test system: prostaglandin E2 (PGE2) production by human THP-1 macrophages; experiment: LPS-stimulated PGE2 production by THP-1 macrophages (LC-MS/MS); format: cell-based
Source text: as §1
In addition to IL-1β, prostaglandin E2 (PGE2) in the culture supernatants was quantified using mass spectrometry. […] The residues were then reconstituted in 100 μL of methanol and analyzed by liquid chromatography with tandem mass spectrometry (LC-MS/MS), as previously described.^13

[8] = 6% w/w PCG-containing diet for 37 days; cited from earlier work

collagen type II, sequence (P02458 182-1241 limits assumed): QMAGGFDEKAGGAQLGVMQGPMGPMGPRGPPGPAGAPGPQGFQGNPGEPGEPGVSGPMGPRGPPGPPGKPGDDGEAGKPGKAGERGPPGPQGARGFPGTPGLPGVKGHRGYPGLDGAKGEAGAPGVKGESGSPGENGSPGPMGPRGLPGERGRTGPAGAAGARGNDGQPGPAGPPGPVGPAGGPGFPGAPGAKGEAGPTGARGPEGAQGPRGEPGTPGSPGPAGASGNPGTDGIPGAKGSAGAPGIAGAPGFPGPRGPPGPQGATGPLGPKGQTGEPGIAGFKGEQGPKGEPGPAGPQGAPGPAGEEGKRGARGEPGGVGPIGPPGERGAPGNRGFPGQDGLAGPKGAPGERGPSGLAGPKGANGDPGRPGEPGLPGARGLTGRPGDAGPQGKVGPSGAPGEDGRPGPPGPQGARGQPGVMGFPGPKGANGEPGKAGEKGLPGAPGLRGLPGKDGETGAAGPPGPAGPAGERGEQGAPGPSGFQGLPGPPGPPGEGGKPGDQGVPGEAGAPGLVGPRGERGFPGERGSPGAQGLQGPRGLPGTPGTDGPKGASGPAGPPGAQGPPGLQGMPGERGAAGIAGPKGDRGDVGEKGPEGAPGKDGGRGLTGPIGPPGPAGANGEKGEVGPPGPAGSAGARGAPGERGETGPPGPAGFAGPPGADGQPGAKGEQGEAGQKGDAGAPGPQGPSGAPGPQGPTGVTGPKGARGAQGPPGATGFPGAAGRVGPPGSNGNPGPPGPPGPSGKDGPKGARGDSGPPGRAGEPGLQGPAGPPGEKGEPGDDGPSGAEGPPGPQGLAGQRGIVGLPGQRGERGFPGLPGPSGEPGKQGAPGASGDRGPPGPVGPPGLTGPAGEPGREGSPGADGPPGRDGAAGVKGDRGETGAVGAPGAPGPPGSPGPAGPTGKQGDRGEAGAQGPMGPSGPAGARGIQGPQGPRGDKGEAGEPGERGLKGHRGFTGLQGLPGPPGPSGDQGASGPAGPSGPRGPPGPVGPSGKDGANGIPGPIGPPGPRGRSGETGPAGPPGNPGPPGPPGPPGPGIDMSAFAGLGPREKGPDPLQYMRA

In the case of `O=C1O[C@H]2[C@@H]3OC(=O)c4cc(O)c(O)c(O)c4-c4c(O)c(O)c5oc(=O)c6c(c(O)c(O)c7oc(=O)c4c5c76)-c4c(cc(O)c(O)c4O)C(=O)OC[C@H]3OC(O)[C@@H]2OC(=O)c2cc(O)c(O)c(O)c2-c2c1cc(O)c(O)c2O` (mixture of isomers) [PCG, punicalagin], the “solubility of PCG in benzyl benzoate (BB)” value [1] is given as “did not dissolve”, the “LPS-induced production of IL-1β” value [2] is given as “attenuated” and the “LPS-induced production of PGE2” value [2] is given as “attenuated”. For the same compound, the “systemic toxicity (histology of major organs)” value ([3]; intraarticular PCG study) was “no evidence of systemic toxicity”, the “erosion of cartilage compared to saline control” value ([3]; semi-weekly intraarticular injections, 9.2 mM PCG solution) was “less overall erosion of cartilage” and the “lipopolysaccharide-stimulated production of IL-6” value [4] was “suppressed”. For the same compound, the “lipopolysaccharide-stimulated production of nitric oxide (NO)” value [4] was “suppressed”, the “lipopolysaccharide-stimulated production of prostaglandin E2 (PGE2)” value [4] was “suppressed” and the “LPS-stimulated IL-1β production” value ([5]; PCG 4 μM, added 1 h after 1 μg/ml LPS, supernatant at 24 h) was “return to the unstimulated control level”. For the same compound, the “LPS-stimulated IL-1β production” value ([5]; PCG 20 μM and above) was “suppression of practically all IL-1β synthesis”, the “TNF-α induced expression of IL-1β” value (fibroblast synoviocytes) was “reduce” and the “TNF-α induced expression of IL-6” value (fibroblast synoviocytes) was “reduce”. The “TNF-α induced expression of MMP-13” value (fibroblast synoviocytes) was “reduce”, the paw edema [6] was “significantly reduced paw edema” and the “binding to collagen type II” value (collagen type II) was “high affinity”. The cartilage mass loss (type 2 collagenase; 100 μM PCG added directly, 12 days, 0.0025% type 2 collagenase) was “about 55%”, the “collagenase-mediated degradation of cartilage” value (type 2 collagenase; added directly to collagenase solution or released from an ISI) was “significantly inhibited” and the “stability of PCG within PLGA ISI” value (type 2 collagenase; judged by collagenase inhibition of released PCG) was “at least 12 days”. For the same compound, the collagenase enzymatic activity (collagenase) was “inhibit its enzymatic activity”, the “attenuation of LPS-stimulated production of PGE2” value ([7]; PCG 500 μM) was “approximately 85%” and the “decrease in PGE2 production” value ([7]; PCG in the range of 4-100 μM) was “about 35%”. The systemic toxicity [8] was “no systemic toxicity”.
